Data published in publication PMC8176454, “Synthesis and Assessment of Novel Probes for Imaging Tau Pathology in Transgenic Mouse and Rat Models” (ACS Chemical Neuroscience, 2021).

What was measured:
[1] = target: T1, tau inclusions in brain sections from transgenic P301S tau mice (human 0N4R tau) (Homo sapiens, UniProt P10636, P618S); assay: In vitro fluorescence microscopy of binding to transgenic P301S tau mouse brain sections
T1 construct: from tissue; host or cells: brain of transgenic P301S tau mice (C57Bl/6 background)
T1 sequence (P10636 1-383 isoform P10636-6 P243S): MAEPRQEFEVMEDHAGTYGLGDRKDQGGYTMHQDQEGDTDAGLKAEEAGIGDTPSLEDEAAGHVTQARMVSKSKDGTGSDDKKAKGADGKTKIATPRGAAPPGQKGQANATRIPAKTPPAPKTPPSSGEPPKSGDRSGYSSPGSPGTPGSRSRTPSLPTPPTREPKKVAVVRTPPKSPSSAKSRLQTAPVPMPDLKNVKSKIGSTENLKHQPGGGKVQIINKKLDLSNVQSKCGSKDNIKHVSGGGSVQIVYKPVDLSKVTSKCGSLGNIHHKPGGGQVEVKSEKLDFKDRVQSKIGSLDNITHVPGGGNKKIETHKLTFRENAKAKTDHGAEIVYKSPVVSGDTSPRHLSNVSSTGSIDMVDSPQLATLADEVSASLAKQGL
Protocol: We then screened all of the compounds for their binding to tau inclusions in brain sections from transgenic P301S tau mice, which express the shortest isoform (0N4R) of human 4-repeat (4R) tau,[18] using their autofluorescence properties to rapidly analyze their binding.
Mice were perfused with PBS followed by 4% PFA. Following 24 h in 4% PFA, the brains were transferred to 20% sucrose prior to being embedded in OCT for cryo-sectioning. Sections (14 μm) were incubated with 50 μM LM229 or PBB3 for 1 h, washed in PBS + 0.1% Triton X-100, and cover-slipped with Vectashield mounting medium. Sections were imaged using a Leica DM6000 microscope. Mouse monoclonal AT8 (MN1020) or AT100 (MN1060) were from ThermoFisher and used at 1:1000. Anti-mouse secondary antibody was conjugated to AlexaFluor647.

[2] = target: T2, 4R tau151-391 aggregates in brainstem sections from SHR72 rats (Homo sapiens, UniProt P10636); assay: Binding to SHR72 transgenic rat brain sections; conditions: 50 μM, colocalization with AT8
T2 construct: tissue AXON Neuroscience; host or cells: brain (brainstem) sections of SHR72 transgenic rats
T2 sequence (P10636 468-708): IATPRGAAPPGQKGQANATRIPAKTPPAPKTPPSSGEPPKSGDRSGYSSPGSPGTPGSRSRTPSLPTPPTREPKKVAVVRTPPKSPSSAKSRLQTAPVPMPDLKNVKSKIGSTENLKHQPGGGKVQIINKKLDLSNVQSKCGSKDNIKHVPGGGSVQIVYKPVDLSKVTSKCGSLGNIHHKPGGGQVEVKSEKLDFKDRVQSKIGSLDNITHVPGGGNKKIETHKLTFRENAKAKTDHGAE
From the text: (§1) Since future PET studies for development of these compounds would require kinetic modeling for their assessment in vivo, we tested their performance in tau transgenic rats. Rat brains and blood volumes are about 6- and 10-fold larger, respectively, than those of mice and thus enable higher resolution imaging and ample volume for repeated blood sampling. We used two transgenic rat lines expressing human-truncated tau comprising the proline-rich region and either three microtubule binding domains (3R tau151-391, SH24)[28] or four microtubule binding domains (4R tau151-391, SHR72).[29] […] However, compared to the SHR24 rat brain sections, there were less inclusions detected, which seems to indicate the compounds have preferential binding toward the three repeat forms of tau in these rat models.
Fresh frozen rat brain coronal sections (10 μm) were stored on slides at −80 °C until use. Sections were fixed in ice cold acetone for 10 min and air-dried and then rehydrated twice for 5 min with buffer (10 mM PBS with 0.1% Triton X-100) before application of 5% bovine serum albumin for 1 h and two more 5 min buffer washes. […] The green autofluorescence of PBB3 and LM229 was visualized using a 488 nm filter and fluorescence of AT8 using a 568 nm filter on a Leica DM6000 microscope.

[3] = target: β-amyloid in AD frontal cortex sections (Homo sapiens, UniProt P05067); assay: Staining of post-mortem AD frontal cortex sections, β-amyloid
Sequence of β-amyloid in AD frontal cortex sections (P05067 672-711 limits assumed): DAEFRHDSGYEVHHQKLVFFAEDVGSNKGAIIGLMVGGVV
From the text: To further validate LM229 as a potential radiotracer for translational research, we investigated its binding to tau aggregates in human globus pallidus/putamen from progressive supranuclear palsy (PSP) subjects (Figure 7) and its selectivity for tau over β-amyloid pathology in AD frontal cortex sections (Figure 8). […] In slices from frontal cortex of AD brains, LM229 gave rise to strong signal (Figure 8A), which colocalized with AT8 immunofluorescence (Figure 8B).

[4] = target: tau (AT8) in AD frontal cortex sections (Homo sapiens, UniProt P10636); assay: Staining of post-mortem AD frontal cortex sections, tau
Sequence of tau (AT8) in AD frontal cortex sections (P10636 623-708 limits assumed): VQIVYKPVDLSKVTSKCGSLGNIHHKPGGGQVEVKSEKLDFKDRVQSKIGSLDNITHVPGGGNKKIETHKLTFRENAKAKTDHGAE
Protocol: To further validate LM229 as a potential radiotracer for translational research, we investigated its binding to tau aggregates in human globus pallidus/putamen from progressive supranuclear palsy (PSP) subjects (Figure 7) and its selectivity for tau over β-amyloid pathology in AD frontal cortex sections (Figure 8).
In slices from frontal cortex of AD brains, LM229 gave rise to strong signal (Figure 8A), which colocalized with AT8 immunofluorescence (Figure 8B). […]
buffer) for 1 h at room temperature. Following 3 washes in PBS/0.1% Triton X-100, 50 µM LM229 (diluted in 1:1 blocking buffer/ethanol) was then added for 1 h at room temperature. Nuclei were stained with DAPI (0.1mg/ml for 10 min), washed and tissues mounted in FluorSaveTM prior to analysis using fluorescence […]
Binding affinity of all compounds with tau fibrils
Microscale Thermophoresis was first used to screen whether there were interaction between the compounds and tau fibrils. For this procedure 200 µL, 5 µM tau fibrils were mixed with 200 µL, 10 µM NT647-NHS dye and then incubated in dark for 30 minutes. Further dialysis (18 hours, changing the buffer after the first 4 hours) was used to remove the free dye giving a 2.5 µM solution of label led protein. […] With each compound, two concentrations (1µM and 1nM) were used to mix with 100nM tau fibrils and then loaded to the MST instrument to read out the MST data curve. […]

[5] = target: T3, 3R tau151-391 aggregates in cortical sections from SHR24 rats (Homo sapiens, UniProt P10636); assay: Binding to SHR24 transgenic rat brain sections; conditions: 50 μM, colocalization with AT8
T3 construct: tissue AXON Neuroscience; host or cells: brain (cortex) sections of SHR24 transgenic rats
T3 sequence (P10636 151-360 isoform P10636-5): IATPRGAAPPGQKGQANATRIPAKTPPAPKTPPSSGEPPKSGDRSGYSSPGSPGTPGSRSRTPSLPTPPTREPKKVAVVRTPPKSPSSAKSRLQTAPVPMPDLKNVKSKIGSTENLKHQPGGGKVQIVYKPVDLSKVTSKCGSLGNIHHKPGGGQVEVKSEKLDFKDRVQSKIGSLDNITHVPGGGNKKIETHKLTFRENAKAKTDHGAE
From the text: as §1
(§2) Fresh frozen rat brain coronal sections (10 μm) were stored on slides at −80 °C until use. Sections were fixed in ice cold acetone for 10 min and air-dried and then rehydrated twice for 5 min with buffer (10 mM PBS with 0.1% Triton X-100) before application of 5% bovine serum albumin for 1 h and two more 5 min buffer washes. Primary monoclonal antibody AT8 (Thermo MN1020, 1:1000) was added overnight at 4 °C, followed by 1 h incubation with a mixture of secondary AlexaFluor555 goat anti-mouse antibody (1:1000) and 50 μM PBB3 or LM229 in 50:50 ethanol/buffer. Following two 5 min washes in buffer, the slides were air-dried and cover-slipped using Fluorsave before analysis. The green autofluorescence of PBB3 and LM229 was visualized using a 488 nm filter and fluorescence of AT8 using a 568 nm filter on a Leica DM6000 microscope.

[6] = test system: 3R tau151-391 aggregates in cortical sections from SHR24 rats; assay: Binding to SHR24 transgenic rat brain sections; conditions: SHR24 (3R) vs SHR72 (4R) brain tissue
From the text: as §1, §2

Binding to P301S tau mouse brain sections, 2 months of age ([1]; 2 months old mice): Rare binding
Binding to tau inclusions in P301S tau mouse brain sections ([1]; autofluorescence, co-staining with AT8 and AT100): intense, specific binding
Binding to WT mouse brain sections ([1]; brainstem sections from WT animals): No specific binding
Fluorescence intensity colocalized with Aβ relative to tau [3]: lower
Signal on AD frontal cortex slices colocalized with AT8 [4]: strong signal
Structure (SMILES): CNc1ccc(/C=C/C=C/c2nc3cc(F)c(O)cc3s2)cn1 [LM229]
Binding to P301S tau mouse brain sections, 6 months of age ([1]; 6 months old mice): significant binding to large populations of neurons
Binding to tau in SHR72 rat brain sections [2]: bound to tau in brain sections from SHR72 rats
Binding to pathological aggregated tau in SHR24 rat brain sections [5]: bound with similar properties to pathological aggregated tau
Preference between 3R and 4R tau inclusions in rat models [6]: preferential binding toward the 3R tau inclusions
